The results in this text go back to BindingDB's records for doi:10.7270/Q2WD3Z10 (Burnham Center For Chemical Genomics, 2010).

The target of the assay is NACHT, LRR and PYD domains-containing protein 3 (Homo sapiens, UniProt Q96P20). The assay is described as follows: NALP3 inhibitors in yeast, dose response, luminescent (AID 488799).
Chain of NACHT, LRR and PYD domains-containing protein 3 (Q96P20 whole entry, the tested form may be a part): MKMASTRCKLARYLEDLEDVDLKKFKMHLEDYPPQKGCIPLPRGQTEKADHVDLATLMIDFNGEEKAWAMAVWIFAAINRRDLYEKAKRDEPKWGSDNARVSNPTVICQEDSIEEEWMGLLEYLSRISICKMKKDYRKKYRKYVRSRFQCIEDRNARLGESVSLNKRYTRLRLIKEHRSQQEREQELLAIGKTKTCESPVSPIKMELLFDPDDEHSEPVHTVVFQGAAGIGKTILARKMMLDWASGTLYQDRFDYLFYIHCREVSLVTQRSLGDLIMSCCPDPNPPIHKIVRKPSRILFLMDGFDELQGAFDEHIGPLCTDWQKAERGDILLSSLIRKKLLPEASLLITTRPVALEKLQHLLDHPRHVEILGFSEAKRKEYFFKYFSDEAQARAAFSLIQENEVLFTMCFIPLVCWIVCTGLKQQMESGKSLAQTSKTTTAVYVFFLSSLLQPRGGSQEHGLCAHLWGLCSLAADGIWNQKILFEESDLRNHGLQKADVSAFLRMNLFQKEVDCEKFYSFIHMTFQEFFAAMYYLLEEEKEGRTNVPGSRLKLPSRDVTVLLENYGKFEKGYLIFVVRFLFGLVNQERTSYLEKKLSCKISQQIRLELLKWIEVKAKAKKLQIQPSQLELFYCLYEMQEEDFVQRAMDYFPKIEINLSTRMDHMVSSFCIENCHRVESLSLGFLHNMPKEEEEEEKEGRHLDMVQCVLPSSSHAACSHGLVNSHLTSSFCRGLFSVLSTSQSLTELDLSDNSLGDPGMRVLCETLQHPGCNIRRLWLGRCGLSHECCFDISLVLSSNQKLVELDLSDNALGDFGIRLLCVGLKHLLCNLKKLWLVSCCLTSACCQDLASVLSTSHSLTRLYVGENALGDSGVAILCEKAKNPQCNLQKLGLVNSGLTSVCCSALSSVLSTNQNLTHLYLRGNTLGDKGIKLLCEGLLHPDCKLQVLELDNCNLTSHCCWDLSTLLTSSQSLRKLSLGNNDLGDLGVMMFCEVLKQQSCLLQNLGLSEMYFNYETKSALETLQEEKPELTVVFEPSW
For orientation: IC50 means the concentration that gives 50% inhibition. Read a low IC50 as greater potency. As to `Cc1csc2nc(=O)c(C(=O)NCCC3=CCCCC3)c(O)n12`, the IC50 amounted to 4.07 µM.
`C=CCc1c(C)nc(C)nc1N=NCc1ccccc1O` [2-[(5-Allyl-2,6-dimethyl-pyrimidin-4-yl)-hydrazonomethyl]-phenol] had a concentration for half-maximal inhibition (IC50) of 45.5 µM.
Regarding `O=C(NCCCc1ccccc1)c1c(O)n2ccsc2nc1=O` [5-oxidanyl-7-oxidanylidene-N-(3-phenylpropyl)-[1,3]thiazolo[3,2-a]pyrimidine-6-carboxamide], the midpoint of inhibition, the IC50, lay at 9.61 µM.
Compound `O=C1C=CC(/N=N/c2ccc([N+](=O)[O-])cc2Cl)=CC1C(=O)Nc1cccc(Cl)c1` (stereo unspecified) [(3Z)-3-[(2-chloro-4-nitrophenyl)hydrazinylidene]-N-(3-chlorophenyl)-6-oxocyclohexa-1,4-diene-1-carboxamide] returned an IC50 of 1.34 µM.
Then `CCCCCC(=O)N1CCN(CCNC=C2C(=O)CC(c3ccco3)CC2=O)CC1` (stereo unspecified) [SMR000019406], with 7.3 µM; and `O=C(NCCC1=CCCCC1)c1c(O)n2ccsc2nc1=O` [SMR000811826], with 3.8 µM.
